From ChEMBL document CHEMBL4476867, “Hydroxy formamide derivatives and their use” (2016) come the findings set out here.

Where only a bound is given, the exact number is not on record here.

Experiment [1] has as its target T1, Bone morphogenetic protein 1 (Homo sapiens, UniProt P13497).
T1 sequence (P13497 whole entry): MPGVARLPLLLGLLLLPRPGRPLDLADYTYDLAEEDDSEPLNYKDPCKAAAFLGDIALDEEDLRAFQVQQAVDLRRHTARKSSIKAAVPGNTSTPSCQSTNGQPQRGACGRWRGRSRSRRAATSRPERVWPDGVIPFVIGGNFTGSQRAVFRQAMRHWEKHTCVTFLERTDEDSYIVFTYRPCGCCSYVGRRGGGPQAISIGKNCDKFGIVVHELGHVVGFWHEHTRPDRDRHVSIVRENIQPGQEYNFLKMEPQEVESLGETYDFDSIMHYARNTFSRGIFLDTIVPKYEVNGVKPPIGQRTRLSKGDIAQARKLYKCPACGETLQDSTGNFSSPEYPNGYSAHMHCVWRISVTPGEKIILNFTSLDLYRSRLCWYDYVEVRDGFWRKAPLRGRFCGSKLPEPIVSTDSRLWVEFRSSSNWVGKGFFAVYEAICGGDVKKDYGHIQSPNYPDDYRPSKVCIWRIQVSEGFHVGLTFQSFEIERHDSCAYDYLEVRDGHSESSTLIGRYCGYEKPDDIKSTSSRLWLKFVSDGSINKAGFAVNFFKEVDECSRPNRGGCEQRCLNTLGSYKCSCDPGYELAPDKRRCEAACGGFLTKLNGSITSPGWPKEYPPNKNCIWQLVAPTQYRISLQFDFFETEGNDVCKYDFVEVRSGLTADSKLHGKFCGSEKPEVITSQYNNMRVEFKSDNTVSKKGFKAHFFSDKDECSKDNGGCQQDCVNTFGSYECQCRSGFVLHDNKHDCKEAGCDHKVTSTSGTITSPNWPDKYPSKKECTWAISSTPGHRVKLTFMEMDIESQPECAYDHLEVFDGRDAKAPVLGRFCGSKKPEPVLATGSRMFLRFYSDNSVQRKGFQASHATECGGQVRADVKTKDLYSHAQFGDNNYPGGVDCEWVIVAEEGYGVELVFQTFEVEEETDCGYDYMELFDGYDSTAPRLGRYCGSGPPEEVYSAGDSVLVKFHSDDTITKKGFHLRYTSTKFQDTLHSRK
Description: Inhibition of C-terminal FLAG-6x-His epitope tagged and N-terminal human RAGE signal sequence tagged human BMP1 (23 to 721 amino acids) expressed in CHO-E1 cells pre-incubated for 10 mins before promyostatin peptide substrate addition and measured after 60 mins using 0.5 nM BMP1 by FRET based assay. It is filed as cell-based.

Experiment [2] deals with Tolloid-like protein 1 (Homo sapiens, UniProt O43897, I156V/N221S/V284A). Description: Inhibition of recombinant human TLL1 I156V/N221S/V284A mutant expressed in CHOE1A cells pre-incubated for 10 mins before promyostatin peptide substrate addition and measured after 60 mins by FRET based assay. Type of experiment: cell-based.
Tolloid-like protein 1, sequence (O43897 148-1013 I156V/N221S/V284A limits assumed): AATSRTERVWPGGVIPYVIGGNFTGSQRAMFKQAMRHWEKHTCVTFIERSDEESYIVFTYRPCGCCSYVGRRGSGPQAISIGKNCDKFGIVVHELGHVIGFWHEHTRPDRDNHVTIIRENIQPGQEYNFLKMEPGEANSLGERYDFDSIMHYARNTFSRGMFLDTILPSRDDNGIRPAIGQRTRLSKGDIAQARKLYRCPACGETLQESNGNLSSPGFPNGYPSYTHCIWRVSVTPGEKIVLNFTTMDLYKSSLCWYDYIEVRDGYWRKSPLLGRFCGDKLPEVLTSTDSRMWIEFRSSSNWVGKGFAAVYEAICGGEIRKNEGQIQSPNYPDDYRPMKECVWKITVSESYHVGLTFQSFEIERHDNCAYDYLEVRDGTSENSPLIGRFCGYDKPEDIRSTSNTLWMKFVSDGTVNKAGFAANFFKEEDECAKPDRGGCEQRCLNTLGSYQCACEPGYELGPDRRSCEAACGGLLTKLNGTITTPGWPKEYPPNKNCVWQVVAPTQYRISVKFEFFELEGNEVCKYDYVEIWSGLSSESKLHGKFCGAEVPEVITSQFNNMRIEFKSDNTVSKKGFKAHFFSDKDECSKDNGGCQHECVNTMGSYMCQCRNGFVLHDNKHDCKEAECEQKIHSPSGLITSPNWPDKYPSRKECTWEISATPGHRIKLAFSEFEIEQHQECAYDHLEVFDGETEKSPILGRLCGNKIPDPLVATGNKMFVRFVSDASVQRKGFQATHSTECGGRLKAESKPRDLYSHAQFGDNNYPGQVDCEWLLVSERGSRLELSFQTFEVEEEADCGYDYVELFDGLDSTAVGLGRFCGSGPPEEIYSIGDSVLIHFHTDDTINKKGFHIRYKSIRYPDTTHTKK
Experiment [3] deals with T1, Bone morphogenetic protein 1. The experiment can be described thus: Inhibition of C-terminal FLAG-6x-His epitope tagged and N-terminal human RAGE signal sequence tagged human BMP1 (23 to 721 amino acids) expressed in CHO-E1 cells pre-incubated for 10 mins before promyostatin peptide substrate addition and measured after 30 mins using 50 nM BMP1 by FRET based assay. It is filed as cell-based.

Experiment [4] is described as follows: Reduction in PICP levels in human cardiac fibroblasts incubated for 24 to 48 hrs by ELISA. It is filed as functional. An outline of the steps:
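Human cardiac fibroblasts (passage 6 or below) were seeded at 10,000 to 15,000 cells per well in 96-well plates. The next day they were treated in ficoll crowding EMEM with 100 μM ascorbic acid and under 0.3% DMSO, for 24 to 48 hr at 37° C. Procollagen I C-terminal propeptide in the medium was measured with a Quidel ELISA. IC50 came from fitting levels relative to untreated controls to a log(inhibitor)-response equation in GraphPad Prism.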
(In general: An ELISA detects its analyte on a solid surface through an enzyme-linked reagent.)

The target in experiment [5] is T2, Tolloid-like protein 2 (Homo sapiens, UniProt Q9Y6L7).
T2 sequence (Q9Y6L7 whole entry): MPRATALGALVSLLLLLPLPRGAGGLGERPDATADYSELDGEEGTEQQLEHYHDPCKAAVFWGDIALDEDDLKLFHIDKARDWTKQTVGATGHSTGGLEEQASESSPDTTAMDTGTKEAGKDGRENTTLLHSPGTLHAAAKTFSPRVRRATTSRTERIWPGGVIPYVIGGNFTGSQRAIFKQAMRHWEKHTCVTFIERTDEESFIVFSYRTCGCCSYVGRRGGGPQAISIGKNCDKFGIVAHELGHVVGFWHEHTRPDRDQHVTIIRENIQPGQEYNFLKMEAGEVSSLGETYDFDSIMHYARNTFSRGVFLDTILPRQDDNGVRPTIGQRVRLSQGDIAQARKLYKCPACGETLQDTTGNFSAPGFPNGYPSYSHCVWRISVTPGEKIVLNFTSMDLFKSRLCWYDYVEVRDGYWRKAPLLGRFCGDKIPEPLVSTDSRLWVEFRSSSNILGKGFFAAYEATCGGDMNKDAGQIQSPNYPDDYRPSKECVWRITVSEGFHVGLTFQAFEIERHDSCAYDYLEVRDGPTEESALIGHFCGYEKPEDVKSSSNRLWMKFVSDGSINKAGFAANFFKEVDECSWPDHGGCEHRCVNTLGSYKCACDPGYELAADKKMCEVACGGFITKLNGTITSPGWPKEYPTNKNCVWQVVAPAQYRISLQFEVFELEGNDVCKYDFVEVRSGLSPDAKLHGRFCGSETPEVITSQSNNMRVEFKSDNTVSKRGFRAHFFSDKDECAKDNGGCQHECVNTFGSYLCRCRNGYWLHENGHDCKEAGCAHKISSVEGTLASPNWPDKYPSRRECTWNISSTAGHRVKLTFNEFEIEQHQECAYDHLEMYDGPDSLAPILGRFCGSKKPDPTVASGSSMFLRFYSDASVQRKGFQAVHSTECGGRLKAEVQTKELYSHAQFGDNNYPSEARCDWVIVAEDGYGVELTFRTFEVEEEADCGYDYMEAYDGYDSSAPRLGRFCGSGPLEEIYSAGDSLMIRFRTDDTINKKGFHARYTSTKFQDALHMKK
The experiment can be described thus: Inhibition of C-terminal Avi-6x-His epitope tagged and N-terminal human RAGE signal sequence tagged recombinant human TLL2 (26 to 1015 amino acids) expressed in CHOE1A cells incubated for 60 mins with promyostatin peptide substrate by FRET based assay. Type of experiment: cell-based.

As usually defined, the IC50 is the point on the concentration scale where inhibition reaches its midpoint.

Turning to `CCCCC[C@H](CN(O)C=O)C(=O)NCNC(=O)c1ccc(-c2ccc(C(=O)O)cc2)o1`, the concentration for half-maximal inhibition (IC50) in experiment [1] was below 126 nM; in experiment [2] it was below 398 nM; in experiment [3], below 200 nM; in experiment [4], below 3980 nM; in experiment [5], below 794 nM.
The matching figures for `CCCCC[C@H](CN(O)C=O)C(=O)NCNC(=O)c1ccc(-c2cccc(C(=O)O)c2)o1`: below 126 nM, below 398 nM, below 200 nM, below 3980 nM and below 794 nM.
Consider `CCCCC[C@@H](C(=O)NCNC(=O)c1ccc(-c2ccc(C(=O)O)c(CC(=O)O)c2)o1)[C@@H](CC)N(O)C=O`, for which the IC50 is below 126 nM in experiment [1]; below 398 nM in experiment [2]; below 200 nM in experiment [3]; below 3980 nM in experiment [4]; below 794 nM in experiment [5].
Take `CCCCC[C@H](CN(O)C=O)C(=O)NCNC(=O)c1ccc(-c2cccc(SCC)c2)o1`: the half-maximal inhibitory concentration (IC50) in experiment [1] is below 126 nM; in experiment [2], below 398 nM; in experiment [3] it was below 200 nM; in experiment [4], below 3980 nM; in experiment [5] it was below 794 nM.
As for `CCCCC[C@H](CN(O)C=O)C(=O)NCNC(=O)c1ccc(-c2ccc(F)c(C(=O)O)c2)o1`, the IC50 in experiment [1] was below 126 nM; in experiment [2] it was below 398 nM; in experiment [3] it was below 200 nM; in experiment [4], below 3980 nM; in experiment [5], below 794 nM.
Turning to `CCCCC[C@H](CN(O)C=O)C(=O)NCNC(=O)c1ccc(-c2cccc([N+](=O)[O-])c2)o1`, the half-inhibitory concentration (IC50) in experiment [1] was below 126 nM; in experiment [2], below 398 nM; in experiment [3] it was below 200 nM; in experiment [4], below 3980 nM; in experiment [5] it was below 794 nM.
On to `CCCCC[C@H](CN(O)C=O)C(=O)NCNC(=O)c1ccc(-c2cccc(OCC(F)F)c2)o1`, for which the IC50 in experiment [1] was below 126 nM; in experiment [2], below 398 nM; in experiment [3], below 200 nM; in experiment [4] it was below 3980 nM; in experiment [5] it was below 794 nM.
Consider `CCCCC[C@@H](C(=O)NCNC(=O)c1ccc(-c2cc(OCC)cc(C(=O)N(CC(=O)O)CC(=O)O)c2)o1)[C@@H](CC)N(O)C=O`, for which the IC50 was below 126 nM in experiment [1]; below 398 nM in experiment [2]; below 200 nM in experiment [3]; below 3980 nM in experiment [4]; below 794 nM in experiment [5].
Take `CCCCC[C@@H](C(=O)NCNC(=O)C1CCC(c2cc(OCC)cc(P(=O)(O)O)c2)O1)[C@@H](CC)N(O)C=O` (stereo not given in full): the half-inhibitory concentration (IC50) in experiment [1] was below 126 nM; in experiment [2], below 398 nM; in experiment [3], below 200 nM; in experiment [4], below 3980 nM; in experiment [5], below 794 nM.
For the molecule `CCCCC[C@@H](C(=O)NCNC(=O)c1ccc(-c2cc(OCC)cc(C(=O)NCP(=O)(O)O)c2)o1)[C@@H](CC)N(O)C=O`, the IC50 is below 126 nM in experiment [1]; below 398 nM in experiment [2]; below 200 nM in experiment [3]; below 3980 nM in experiment [4]; below 794 nM in experiment [5].
Turning to `CCOc1cc(C(=O)O)c(O)c(-c2ccc(C(=O)NCNC(=O)[C@H](CCc3ccccc3)[C@@H](CC)N(O)C=O)o2)c1`, the half-inhibitory concentration (IC50) is below 126 nM in experiment [1]; below 398 nM in experiment [2]; below 200 nM in experiment [3]; below 3980 nM in experiment [4]; below 794 nM in experiment [5].
With `CCCCC[C@H](CN(O)C=O)C(=O)NCNC(=O)c1ccc(-c2cccc(P(=O)(O)OC)c2)o1`, the IC50 in experiment [1] was below 126 nM; in experiment [2], below 398 nM; in experiment [3] it was below 200 nM; in experiment [4] it was below 3980 nM; in experiment [5], below 794 nM.
The matching figures for `CCCCC[C@H](CN(O)C=O)C(=O)NCNC(=O)c1ccc(-c2cccc(P(=O)(O)O)c2)o1`: below 126 nM, below 398 nM, below 200 nM, below 3980 nM and below 794 nM.
Taken in the same sequence, the figures for `CCOc1cc(-c2ccc(C(=O)NCNC(=O)[C@H](CCc3ccc4ccccc4c3)[C@@H](CC)N(O)C=O)o2)ccc1C(=O)N[C@@H](CC(=O)O)C(=O)O` were below 126 nM, below 398 nM, below 200 nM, below 3980 nM and below 794 nM.
With `CC[C@H]([C@@H](CCc1ccc(F)cc1F)C(=O)NCNC(=O)c1ccc(-c2cc(OCC(=O)O)cc(C(=O)O)c2O)o1)N(O)C=O`, the half-maximal inhibitory concentration (IC50) in experiment [1] was below 126 nM; in experiment [2] it was below 398 nM; in experiment [3] it was below 200 nM; in experiment [4], below 3980 nM; in experiment [5] it was below 794 nM.
For the molecule `CCCCC[C@H](CN(O)C=O)C(=O)NCNC(=O)c1ccc(-c2cccc(SC)c2)o1`, the 50% inhibitory concentration (IC50) in experiment [1] was below 126 nM; in experiment [2] it was below 398 nM; in experiment [3], below 200 nM; in experiment [4], below 3980 nM; in experiment [5], below 794 nM.
`CCCCC[C@@H](C(=O)NCNC(=O)c1ccc(-c2cc(OCC)cc(P(=O)(O)OC)c2)o1)[C@@H](CC)N(O)C=O`: the 50% inhibitory concentration (IC50) in experiment [1] is below 126 nM; in experiment [2], below 398 nM; in experiment [3] it was below 200 nM; in experiment [4], below 3980 nM; in experiment [5], below 794 nM.
`CCCCC[C@@H](C(=O)NCNC(=O)c1ccc(-c2cc(OCC)cc(C(=O)NC(CO)(CO)CO)c2)o1)[C@@H](CC)N(O)C=O`: the IC50 was below 126 nM in experiment [1]; below 398 nM in experiment [2]; below 200 nM in experiment [3]; below 3980 nM in experiment [4]; below 794 nM in experiment [5].
The matching figures for `CCCCC[C@H](CN(O)C=O)C(=O)NCNC(=O)c1ccc(-c2cccc(P(C)(=O)O)c2)o1`: below 126 nM, below 398 nM, below 200 nM, below 3980 nM and below 794 nM.
With `CCCCC[C@H](CN(O)C=O)C(=O)NCNC(=O)c1ccc(-c2ccc3cnn(C)c3c2)o1`, the 50% inhibitory concentration (IC50) in experiment [1] was below 126 nM; in experiment [2], below 398 nM; in experiment [3], below 200 nM; in experiment [4], below 3980 nM; in experiment [5], below 794 nM.
